Reference: US10993935B2, “Compositions and methods for treatment of lung infections” (priority 2018, dated 2021)
Where a name gives a salt, the structure may show the parent alone.

Columns and labels:
[1] = system: P. aeruginosa PAO581 (PAO1mucA25); experiment: NIH drug library screen for inhibition of growth, mucoidy and PalgD-lacZ colour; type: cell-based, Pseudomonas aeruginosa; conditions: for Growth 10 μM / Mucoidy 10 μM / Color 10 μM: drug at 10 μM; for Growth 10 μM / Growth 50 μM / Growth 2 μM: PAO581 on PIA; for Mucoidy 10 μM / Mucoidy 50 μM / Mucoidy 2 μM: PAO581 with pLP170-PalgD-lacZ on PIA + X-gal; for Color 10 μM / Color 50 μM / Color 2 μM: X-gal colour of PalgD-lacZ reporter, 'Light' wraps to 'Light Blue'; for Growth 50 μM / Mucoidy 50 μM / Color 50 μM: drug at 50 μM; for Growth 2 μM / Mucoidy 2 μM / Color 2 μM: drug at 2 μM
[2] = Adverse effects after nebulization in mice; type: in vivo, C57BL/6 mice; conditions: single nebulized dose of 5 ml of 100% DMSO; C57BL/6 mice (n=8)
Protocol: Drug Nebulization. C57BL/6 mice (n=8) were first exposed to 5 mL DMSO for 10 minutes to determine any adverse effects that may occur from using DMSO. Mice (n=16) were then exposed to TOB in 0.225% saline or RFX in DMSO via nebulization until the 5 mL drug mixture was depleted—typically 10-15 minutes. Nebulization was conducted using the pressure-based nebulizer and chamber purchased from Kent Scientific (Torrington, Conn.). TOB was nebulized at concentrations of 100 mg (n=4) or 400 mg (n=4) in 5 mL of 0.225% saline. RFX was nebulized at concentrations of 100 mg (n=4) or 400 mg (n=4) in 5 ml of 100% dimethyl sulfoxide. Mice were sacrificed immediately after nebulization via CO2 chamber. Lungs were then collected and homogenized. TOB concentrations were measured using ELISA. RFX concentrations were measured via HPLC.
The potential adverse effects of using DMSO were first assessed by nebulizing DMSO alone to a group of C57BL/6 mice (n=8). This type of mice was used due to their natural resistance against infection based on our previous studies. […] To determine the dosage of each drug received by the mice, the lungs were homogenized and drug concentrations of TOB and RFX were determined via ELISA and HPLC, respectively. […] The droplet size for both TOB and RFX were determined to be identical with the average droplet size for TOB and RFX being 5.07 μm and 5.02 μm, respectively. […]

Structure (SMILES): CCCCCCCCCOc1ccc2[nH]cc(CCN)c2c1 [5-Nonyloxyltryptamine]
- Growth 10 μM [1]: Yes
- Mucoidy 10 μM [1]: High
- Color 10 μM [1]: Blue
- Growth 50 μM [1]: Reduced
- Mucoidy 50 μM [1]: High
- Color 50 μM [1]: Blue

Structure (SMILES): CCCCCCNC(=O)n1cc(F)c(=O)[nH]c1=O [Carmofur]
- Growth 2 μM [1]: Yes
- Mucoidy 2 μM [1]: High
- Color 2 μM [1]: Light
- Growth 10 μM [1]: Reduced
- Mucoidy 10 μM [1]: Inhibited
- Color 10 μM [1]: Clear
- Growth 50 μM [1]: Reduced
- Mucoidy 50 μM [1]: Inhibited
- Color 50 μM [1]: Clear

Structure (SMILES): CC[C@H]1OC(=O)[C@H](C)[C@@H](O[C@H]2C[C@@](C)(OC)[C@@H](O)[C@H](C)O2)[C@H](C)[C@@H](O[C@@H]2O[C@H](C)C[C@H](N(C)C)[C@H]2O)[C@](C)(OC)C[C@@H](C)C(=O)[C@H](C)[C@@H](O)[C@]1(C)O [Clarithromycin]
- Growth 2 μM [1]: Yes
- Mucoidy 2 μM [1]: High
- Color 2 μM [1]: Blue
- Growth 10 μM [1]: Reduced
- Mucoidy 10 μM [1]: High
- Color 10 μM [1]: Blue
- Growth 50 μM [1]: Yes
- Mucoidy 50 μM [1]: Inhibited
- Color 50 μM [1]: Light

Structure (SMILES): C[S+](C)[O-] [DMSO, dimethyl sulfoxide]
- adverse effects [2]: no adverse effects

Structure (SMILES): CCN1CCN(c2cc3c(cc2F)c(=O)c(C(=O)O)cn3C2CC2)CC1 [Enrofloxacin]
- Growth 2 μM [1]: Inhibited
- Growth 10 μM [1]: Inhibited
- Growth 50 μM [1]: Inhibited

Structure (SMILES): COc1c(N2C[C@@H]3CCCN[C@@H]3C2)c(F)cc2c(=O)c(C(=O)O)cn(C3CC3)c12 [Moxifloxacin Hydrochloride]
- Growth 2 μM [1]: Reduced
- Mucoidy 2 μM [1]: Reduced
- Color 2 μM [1]: Light
- Growth 10 μM [1]: Inhibited
- Growth 50 μM [1]: Inhibited

Structure (SMILES): C[C@H]1COc2c(C3(N)CC3)c(F)cc3c(=O)c(C(=O)O)cn1c23 [Pazufloxacin]
- Growth 2 μM [1]: Inhibited
- Growth 10 μM [1]: Inhibited
- Growth 50 μM [1]: Inhibited

Structure (SMILES): CO[C@H]1/C=C/O[C@@]2(C)Oc3c(C)c(O)c4c(c3C2=O)C2=NC3(CCN(CC(C)C)CC3)NC2=C(NC(=O)/C(C)=C\C=C\[C@H](C)[C@H](O)[C@@H](C)[C@@H](O)[C@@H](C)[C@H](OC(C)=O)[C@@H]1C)C4=O [Rifabutin]
- Growth 2 μM [1]: Reduced
- Mucoidy 2 μM [1]: High
- Color 2 μM [1]: Light
- Growth 10 μM [1]: Inhibited
- Growth 50 μM [1]: Inhibited

Structure (SMILES): CO[C@H]1/C=C/O[C@@]2(C)Oc3c(C)c(O)c4c(O)c(c(/C=N/N5CCN(C6CCCC6)CC5)c(O)c4c3C2=O)NC(=O)/C(C)=C\C=C\[C@H](C)[C@H](O)[C@@H](C)[C@@H](O)[C@@H](C)[C@H](OC(C)=O)[C@@H]1C [Rifapentine]
- Growth 2 μM [1]: Yes
- Mucoidy 2 μM [1]: High
- Color 2 μM [1]: Blue
- Growth 10 μM [1]: Reduced
- Mucoidy 10 μM [1]: Reduced
- Color 10 μM [1]: Light
- Growth 50 μM [1]: Inhibited

Structure (SMILES): CN1CCN(c2c(F)cc3c(=O)c(C(=O)O)cn4c3c2SCC4)CC1 [Rufloxacin Monohydrate]
- Growth 10 μM [1]: Yes
- Mucoidy 10 μM [1]: High
- Color 10 μM [1]: Blue
- Growth 50 μM [1]: Yes
- Mucoidy 50 μM [1]: Inhibited
- Color 50 μM [1]: Light

Structure (SMILES): NC1CCN(c2nc3c(cc2F)c(=O)c(C(=O)O)cn3-c2ccc(F)cc2F)C1 (stereo not drawn) [Tosufloxacin Tosilate]
- Growth 2 μM [1]: Inhibited
- Growth 10 μM [1]: Inhibited
- Growth 50 μM [1]: Inhibited
